Test results as given in ChEMBL document CHEMBL4354795, “Amino Acid Scanning at P5' within the Bowman-Birk Inhibitory Loop Reveals Specificity Trends for Diverse Serine Proteases” (J Med Chem, 2019).
Bridge positions count the residues as written; N and C are the ends. Peptide text beside a SMILES is read from it.

Legend:
Kallikrein-7 [1] = target: T1, Kallikrein-7 (Homo sapiens, UniProt P49862); assay: Inhibition of recombinant human KLK7 expressed in expressed in Pichia pastoris X-33 cells using KHLY-pNA as susbtrate measured every 15 secs for 10 mins by colorimetric analysis
Target sequence in this assay (P49862 whole entry): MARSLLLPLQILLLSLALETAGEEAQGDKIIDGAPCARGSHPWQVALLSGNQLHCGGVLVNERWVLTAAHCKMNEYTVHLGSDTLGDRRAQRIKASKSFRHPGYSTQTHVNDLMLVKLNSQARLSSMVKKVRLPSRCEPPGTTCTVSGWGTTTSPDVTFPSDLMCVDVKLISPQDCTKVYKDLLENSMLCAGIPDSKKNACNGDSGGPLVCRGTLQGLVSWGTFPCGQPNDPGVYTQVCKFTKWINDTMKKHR

[2] = Inhibition of human cationic trypsin using Boc-VPR-MCA as susbtrate measured every 60 secs for 10 mins by fluorescence based assay
Kallikrein-7 [3] = target: T1, Kallikrein-7; assay: Inhibition of recombinant human KLK7 expressed in expressed in Pichia pastoris X-33 cells at 5 uM using KHLY-pNA as susbtrate measured every 15 secs for 10 mins by colorimetric analysis relative to control
Target sequence in this assay (P49862 30-253 limits assumed): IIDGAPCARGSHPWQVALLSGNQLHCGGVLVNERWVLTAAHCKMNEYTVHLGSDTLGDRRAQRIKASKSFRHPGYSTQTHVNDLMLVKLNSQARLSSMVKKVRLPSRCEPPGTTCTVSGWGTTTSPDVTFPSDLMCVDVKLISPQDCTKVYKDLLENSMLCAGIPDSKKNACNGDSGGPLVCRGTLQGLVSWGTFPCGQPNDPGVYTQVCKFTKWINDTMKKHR

[4] = target: T2, Suppressor of tumorigenicity 14 protein (Homo sapiens, UniProt Q9Y5Y6); assay: Inhibition of recombinant human matriptase using Boc-QAR-MCA as susbtrate measured every 60 secs for 10 mins by fluorescence based assay
T2 sequence (Q9Y5Y6 whole entry): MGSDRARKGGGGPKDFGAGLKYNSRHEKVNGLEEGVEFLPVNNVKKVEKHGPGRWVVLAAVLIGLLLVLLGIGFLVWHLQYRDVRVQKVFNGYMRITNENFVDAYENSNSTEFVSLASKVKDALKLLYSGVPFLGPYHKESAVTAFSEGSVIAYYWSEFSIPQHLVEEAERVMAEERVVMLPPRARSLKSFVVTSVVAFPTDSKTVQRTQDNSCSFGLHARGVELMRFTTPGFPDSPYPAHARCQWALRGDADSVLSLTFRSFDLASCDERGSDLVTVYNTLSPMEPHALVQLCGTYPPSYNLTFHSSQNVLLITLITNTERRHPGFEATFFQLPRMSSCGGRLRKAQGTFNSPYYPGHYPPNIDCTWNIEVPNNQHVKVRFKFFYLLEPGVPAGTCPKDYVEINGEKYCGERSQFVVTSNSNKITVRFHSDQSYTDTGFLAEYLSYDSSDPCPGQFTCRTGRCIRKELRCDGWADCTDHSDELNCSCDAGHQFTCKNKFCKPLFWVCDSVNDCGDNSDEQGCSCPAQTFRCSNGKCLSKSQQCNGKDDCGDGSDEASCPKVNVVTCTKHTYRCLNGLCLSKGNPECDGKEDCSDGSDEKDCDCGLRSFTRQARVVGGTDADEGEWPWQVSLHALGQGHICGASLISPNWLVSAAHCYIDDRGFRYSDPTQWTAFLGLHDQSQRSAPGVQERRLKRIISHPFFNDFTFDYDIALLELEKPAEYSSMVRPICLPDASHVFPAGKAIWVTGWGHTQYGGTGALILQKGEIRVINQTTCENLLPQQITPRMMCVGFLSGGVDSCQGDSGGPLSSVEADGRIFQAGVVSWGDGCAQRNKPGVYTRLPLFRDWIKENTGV

Kallikrein-5 [5] = target: T3, Kallikrein-5 (Homo sapiens, UniProt Q9Y337); assay: Inhibition of recombinant human KLK5 expressed in expressed in Pichia pastoris X-33 cells using Boc-VPR-MCA as susbtrate measured every 60 secs for 10 mins by fluorescence based assay
T3 sequence (Q9Y337 whole entry): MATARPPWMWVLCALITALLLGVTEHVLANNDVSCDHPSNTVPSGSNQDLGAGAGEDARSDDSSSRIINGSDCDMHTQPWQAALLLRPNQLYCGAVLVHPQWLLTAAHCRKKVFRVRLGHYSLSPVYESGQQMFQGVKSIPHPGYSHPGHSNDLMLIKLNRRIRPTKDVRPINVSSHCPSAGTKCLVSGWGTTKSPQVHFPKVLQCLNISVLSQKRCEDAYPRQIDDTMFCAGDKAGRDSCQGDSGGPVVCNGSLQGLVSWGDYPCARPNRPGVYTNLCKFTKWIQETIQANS

Homo sapiens = species: Homo sapiens; assay: Inhibition of human cationic trypsin at 10 uM using Boc-VPR-MCA as susbtrate measured every 60 secs for 10 mins by fluorescence based assay relative to control
[6] = target: T4, Suppressor of tumorigenicity 14 protein (Homo sapiens) (UniProt Q9Y5Y6); assay: Inhibition of recombinant human matriptase at 10 uM using Boc-QAR-MCA as susbtrate measured every 60 secs for 10 mins by fluorescence based assay relative to control
T4 sequence (whole entry): T2 sequence (Q9Y5Y6 whole entry)

Kallikrein-7 [7] = target: T1, Kallikrein-7; assay: Inhibition of recombinant human KLK7 expressed in expressed in Pichia pastoris X-33 cells at 10 uM using KHLY-pNA as susbtrate measured every 15 secs for 10 mins by colorimetric analysis relative to control
Target sequence in this assay (P49862 30-253 limits assumed): as the sequence (P49862 30-253 limits assumed) above

Kallikrein-5 [8] = target: T3, Kallikrein-5; assay: Inhibition of recombinant KLK5 (unknown origin) expressed in Pichia pastoris X-33 cells using pNA peptide as susbtrate measured every 10 secs for 300 secs by spectrometric analysis
[9] = target: T2, Suppressor of tumorigenicity 14 protein; assay: Inhibition of recombinant human matriptase catalytic domain using Boc-QARAMC as substrate preincubated for 1 hr followed by substrate addition
Kallikrein-7 [10] = target: T1, Kallikrein-7; assay: Inhibition of recombinant KLK7 (unknown origin) expressed in Pichia pastoris X-33 cells using p-NA peptide as substrate measured every 10 secs for 300 secs by spectrophotometric analysis
Target sequence in this assay (P49862 whole entry): as the sequence (P49862 whole entry) above

| SMILES | IC50 (Kallikrein-7 [1]) [µM] | IC50 [2] [µM] | IC50 [4] [µM] | Ki (Kallikrein-5 [5]) [µM] | further results |
| --- | --- | --- | --- | --- | --- |
| N=C(N)NCCC[C@@H]1NC(=O)[C@H](Cc2cnc[nH]2)NC(=O)[C@@H]2CSSC[C@H](NC(=O)[C@H](CCC(=O)O)NC(=O)[C@@H]3CCCN3C(=O)[C@@H]3CCCN3C(=O)[C@H](Cc3ccc(O)cc3)NC(=O)[C@H](CO)NC1=O)C(=O)N[C@@H](Cc1c[nH]c3ccccc13)C(=O)N1CCC[C@H]1C(=O)N[C@@H](CC(N)=O)C(=O)NCC(=O)N[C@@H](Cc1ccccc1)C(=O)N2 | > 5 | > 10 | > 10 | 0.0024 | inhibition (Kallikrein-7 [3]): < 50% |
| N=C(N)NCCC[C@@H]1NC(=O)[C@H](Cc2cnc[nH]2)NC(=O)[C@@H]2CSSC[C@H](NC(=O)[C@H](CC(=O)O)NC(=O)[C@@H]3CCCN3C(=O)[C@@H]3CCCN3C(=O)[C@H](Cc3ccc(O)cc3)NC(=O)[C@H](CO)NC1=O)C(=O)N[C@@H](Cc1ccccc1)C(=O)N1CCC[C@H]1C(=O)N[C@@H](CC(N)=O)C(=O)NCC(=O)N[C@@H](Cc1ccccc1)C(=O)N2 (cyclo(CFPNGFCHRSYPPD); disulfide 1-7) |  |  |  | 0.0089 |  |
| N=C(N)NCCC[C@@H]1NC(=O)[C@H](Cc2cnc[nH]2)NC(=O)[C@@H]2CSSC[C@H](NC(=O)[C@H](CCC(=O)O)NC(=O)[C@@H]3CCCN3C(=O)[C@@H]3CCCN3C(=O)[C@H](Cc3ccc(O)cc3)NC(=O)[C@H](CO)NC1=O)C(=O)N[C@@H](Cc1ccccc1)C(=O)N1CCC[C@H]1C(=O)N[C@@H](CC(N)=O)C(=O)NCC(=O)N[C@@H](Cc1ccccc1)C(=O)N2 (cyclo(CFPNGFCHRSYPPE); disulfide 1-7) | > 10 | > 10 | > 10 | 0.0037 | inhibition (Homo sapiens): < 50%; inhibition [6]: < 50%; inhibition (Kallikrein-7 [7]): < 50% |
| CC[C@H](C)[C@@H]1NC(=O)[C@@H]2CCCN2C(=O)[C@@H]2CCCN2C(=O)[C@H]([C@@H](C)CC)NC(=O)[C@H](CO)NC(=O)[C@H](CCCCN)NC(=O)[C@H]([C@@H](C)O)NC(=O)[C@@H]2CSSC[C@H](NC1=O)C(=O)N[C@@H](Cc1ccccc1)C(=O)N1CCC[C@H]1C(=O)N[C@@H](CC(N)=O)C(=O)NCC(=O)N[C@@H](CCCNC(=N)N)C(=O)N2 (cyclo(CFPNGRCTKSIPPI); disulfide 1-7) |  |  |  |  | Ki (Kallikrein-5 [8]): 0.143 µM; Ki [9]: 0.2 µM; IC50 (Kallikrein-7 [10]): > 10 µM |
| N=C(N)NCCC[C@@H]1NC(=O)[C@H](CC(N)=O)NC(=O)[C@@H]2CSSC[C@H](NC(=O)[C@H](CC(=O)O)NC(=O)[C@@H]3CCCN3C(=O)[C@@H]3CCCN3C(=O)[C@H](Cc3ccc(O)cc3)NC(=O)[C@H](CO)NC1=O)C(=O)N[C@@H](Cc1ccccc1)C(=O)N1CCC[C@H]1C(=O)N[C@@H](CC(N)=O)C(=O)NCC(=O)N[C@@H](Cc1ccc(O)cc1)C(=O)N2 (cyclo(CFPNGYCNRSYPPD); disulfide 1-7) |  |  |  | 0.00073 |  |
| N=C(N)NCCC[C@@H]1NC(=O)[C@H](CC(N)=O)NC(=O)[C@@H]2CSSC[C@H](NC(=O)[C@H](CCC(=O)O)NC(=O)[C@@H]3CCCN3C(=O)[C@@H]3CCCN3C(=O)[C@H](Cc3ccc(O)cc3)NC(=O)[C@H](CO)NC1=O)C(=O)N[C@@H](Cc1ccccc1)C(=O)N1CCC[C@H]1C(=O)N[C@@H](CC(N)=O)C(=O)NCC(=O)N[C@@H](Cc1ccc(O)cc1)C(=O)N2 (cyclo(CFPNGYCNRSYPPE); disulfide 1-7) | > 10 | > 2 | > 10 | 0.00034 |  |
